Earlier results on one molecule are cited in US20050232985A1, “Ciprofloxacin hcl” (priority 2002, published 2005).

Structures can show the parent of a compound that is named as a salt.

Series [1] deals with Excherichia Coli, Klebsiella SPP., and other Enterobacter SPP., Bacillus—negative.
In series [2] the test system is Pseudomonas aerugenosa, golden yellow Staphylococcus and Streptococcus pneumoniae.

For `O=C(O)c1cn(C2CC2)c2cc(N3CCNCC3)c(F)cc2c1=O` [Ciprofloxacin Hydrochloride, I-cyclopropyl-6-fluoro-1,4-dihydro-4-oxo-7-(I-piperazinyl)-3-quinolinecarboxylic acid], the antibacterial activity entry in series [1] is “wide range antibacterial activity”. For the same molecule, the “antibacterial action versus Norfloxacin and Peifloxacin” value in series [2] was “better than other known derivatives”. For the same molecule, the “antibacterial action versus Penicillin kinds of antibiotic” value with Streptococcus SPP. was “less than Penicillin kinds of antibiotic”.
